Like-named read-outs stand apart in the source and are kept apart here.
Experiments:
[1] = system: K562-TAX (paclitaxel-resistant variant of K562); test: MTS cytotoxicity assay, K562-TAX; format: cell-based, human; settings: Homo sapiens, K562-Tax, read-out: IC50 cytotoxic activity K562-TAX
Protocol: (§1) The p53 deficient variant, HCT116p53−/−, was purchased from Horizon Discovery (Cambridge, UK). The daunorubicin-resistant CCRF-CEM cell line CEM-DNR bulk and paclitaxel-resistant K562-TAX sublines were developed in-house by exposing parental cell lines to escalating concentrations of daunorubicin and paclitaxel, respectively. Cells were maintained in the recommended culture medium (Sigma-Aldrich, St. Louis, MO) supplemented with 10% foetal calf serum, 100 U/mL penicillin, and 100 μg/mL streptomycin. The HUVEC line was obtained from PromoCell (Heidelberg, Germany). The cells were cultured in endothelial cell growth medium with SupplementMix for endothelial cells (PromoCell, Heidelberg, Germany). The incubation conditions were a humidified atmosphere of 95% air and 5% CO2 at 37 °C[10]. Cells were seeded in 384-well plates and after overnight incubation treated with compounds. All tested compounds were dissolved in 100% DMSO, and fourfold serial dilutions were performed using an Echo550 liquid handler (Labcyte, San Jose, CA). The experiments were performed in technical duplicates and three biological replicates. Cells were incubated with compounds for 72 h and thereafter 5 μL of MTS reagent was added to each well.

[2] = system: CCRF-CEM lymphoblasts; test: BrDU incorporation analysis (DNA synthesis); format: cell-based, human
Protocol: (§2) To further characterise the mode of action of studied compounds, we analysed the cell cycle profile of CCRF-CEM cells treated with compounds for 24 h. […] The compounds ED1–ED9 and ED12 induced arrest in G2/M phase of the cell cycle (Figure 2(A)). To differentiate between G2 block and mitotic arrest, we used phospho-histone H3 (Ser10) mitotic marker (Figure 2(B)). […] Generally, dimers induced a dose-dependent increase of sub G1 cell population with fragmented DNA except for ED2 and ED4 (Figure 2(C)). […] To assess the proliferation of treated cells, they were subjected to 5-bromo-2-deoxyuridine (BrDU) labelling. […] Analogously, changes in 5-bromouridine (BrU) incorporation were examined to monitor overall RNA synthesis.
Thirty minutes before harvesting, cells were pulse-labelled with 10 μM BrDU. After overnight fixation in ice-cold 70% ethanol, cells were resuspended in 2 M HCl for 30 min at room temperature (RT), then washed with 0.1 M Na2B4O7 and blocked with PBS containing 0.5% Tween-20 and 1% BSA. BrDU incorporation was analysed using anti-BrdU antibody clone MoBu-1 (Exbio, Vestec, Czech Republic) and a secondary anti-mouse-FITC antibody (Sigma-Aldrich, St. Louis, MO). Cells were washed with PBS and stained with 0.1 mg/mL propidium iodide and 0.5 mg/mL RNase A for 1 h at RT and analysed by flow cytometry using a 488 nm single beam laser (FACSCalibur, Becton Dickinson, Franklin Lakes, NJ). The percentage of cells with incorporated BrDU was analysed using CellQuest software.

[3] = system: U2OS (osteosarcoma); test: MTS cytotoxicity assay, U2OS; format: cell-based, human; settings: Homo sapiens, U2OS, read-out: IC50 cytotoxic activity U2OS
Protocol: as §1

[4] = system: HCT116p53−/− (p53 gene null variant of HCT116); test: MTS cytotoxicity assay, HCT116p53−/−; format: cell-based; settings: Homo sapiens, read-out: IC50 cytotoxic activity HCT116p53-
Protocol: as §1

[5] = MTS cytotoxicity assay, BJ; format: cell-based; settings: human
Protocol: as §1

[6] = system: HCT116 (colorectal adenocarcinoma); test: MTS cytotoxicity assay, HCT116; format: cell-based; settings: Homo sapiens, read-out: IC50 cytotoxic activity HCT116
Protocol: as §1

[7] = system: K562 (chronic myelogenous leukaemia); test: MTS cytotoxicity assay, K562; format: cell-based; settings: Homo sapiens, read-out: IC50 cytotoxic activity K562
Protocol: as §1

[8] = molecular target: T1, porcine brain tubulin (Sus scrofa, UniProt P02550+P02554); test: Tubulin polymerisation assay; format: biochemical; settings: 10 μmol/L, Vmax relative to DMSO
T1 construct: purchased Cytoskeleton, Denver, CO; host or cells: porcine brain (tissue-purified)
Protocol: Tubulin polymerisation assay kit (Cytoskeleton, Denver, CO) was used according to the manufacturer’s instructions. Polymerisation of porcine brain tubulin (>99% purity) was measured using an EnVision Multilabel Plate Reader (PerkinElmer, Waltham, MA) at 37 °C, in the presence of either 10 μmol/L test compounds or DMSO. Maximum polymerisation velocity (Vmax) was calculated from the polymerisation curves. Data visualisation was performed in OriginPro 2018b (b9.5.5.409) software (OriginLab Corporation, Northampton, MA)[10].

[9] = system: CCRF-CEM (childhood T-cell acute lymphoblastic leukaemia); test: MTS cytotoxicity assay, CCRF-CEM; format: cell-based; settings: Homo sapiens, read-out: IC50 cytotoxic activity CCRF-CEM
Protocol: as §1

[10] = system: CCRF-CEM lymphoblasts; test: Phospho-histone H3 (Ser10) mitotic marker, flow cytometry; format: cell-based, human
Protocol: as §2
(§3) Treated CCRF-CEM cells were harvested, washed with ice-cold phosphate-buffered saline (PBS), fixed in cold 70% ethanol and stored at −20 °C. Prior to analysis, fixed cells were permeabilised with 0.25% Triton X-100 in PBS for 15 min, blocked in 1% bovine serum, and incubated with anti-phospho-Histone H3 (Ser^10) antibody (Merck Millipore, Burlington, MA). Subsequently, the cells were treated with 50 μg/mL RNAse, stained with propidium iodide and analysed by FACSCalibur (Becton Dickinson, Franklin Lakes, NJ) flow cytometer at 488 nm. Cell cycle distribution (G1, S, and G2/M) was analysed using ModFitLT software (Verity, Topsham, ME), and reflects only viable population prior to the fixing procedure. Particles with lower propidium iodide content than G1 phase cells were classified as non-viable cells with fragmented DNA. Flow cytometry data visualisation was performed using OriginPro 2018b (b9.5.5.409) software (OriginLab Corporation, Northampton, MA)[10].

[11] = system: A549 (lung adenocarcinoma); test: MTS cytotoxicity assay, A549; format: cell-based, human; settings: Homo sapiens, read-out: IC50 cytotoxic activity A549
Protocol: as §1

[12] = system: CEM-DNR (daunorubicin resistant variant of CCRF-CEM); test: MTS cytotoxicity assay, CEM-DNR; format: cell-based, human; settings: Homo sapiens, CEM-DNR, read-out: IC50 cytotoxic activity CEM-DNR
Protocol: as §1

[13] = MTS cytotoxicity assay, HUVEC; format: cell-based; settings: human
Protocol: as §1

[14] = MTS cytotoxicity assay, MRC-5; format: cell-based; settings: human
Protocol: as §1

[15] = system: CCRF-CEM lymphoblasts; test: Cell cycle analysis by flow cytometry (propidium iodide); format: cell-based, human
Protocol: as §2, §3

[16] = system: CCRF-CEM lymphoblasts; test: BrU incorporation analysis (RNA synthesis); format: cell-based, human
Protocol: as §2
Prior to the trypsinisation, cells were treated with 1 mM BrU for 30 min. Subsequently, the cells were fixed in 1% paraformaldehyde with 0.05% of NP-40 for 15 min at RT and stored overnight at 4 °C. Fixed cells were washed with 1% glycine in PBS and stained with primary anti-BrdU antibody clone MoBu-1 crossreacting with BrU (Exbio, Vestec, Czech Republic) for 30 min at RT, washed with PBS and labelled with secondary anti-mouse-FITC antibody (Sigma-Aldrich, St. Louis, MO). Following 1-h incubation in 1% paraformaldehyde containing 0.05% NP-40, cells were stained with propidium iodide (0.1 mg/mL) and treated with RNase A (0.5 mg/mL) for 1 h at RT. The percentage of BrU positive cells was quantified using CellQuest software.

[17] = MTS assay, 72-h incubation, mean ± SD of 3 independent experiments
[18] = HCT-116, MTS assay, 72-h incubation, mean ± SD of 3 independent experiments
[19] = BJ cells (non-tumour skin fibroblasts), MTS assay, 72-h incubation, mean ± SD of 3 independent experiments, read-out: IC50 cytotoxic activity BJ
[20] = K562, MTS assay, 72-h incubation, mean ± SD of 3 independent experiments
[21] = A549, MTS assay, 72-h incubation, mean ± SD of 3 independent experiments
[22] = MRC-5 cells (non-tumour fibroblasts), MTS assay, 72-h incubation, mean ± SD of 3 independent experiments, read-out: IC50 cytotoxic activity MRC-5

T1 sequence (P02550 whole entry): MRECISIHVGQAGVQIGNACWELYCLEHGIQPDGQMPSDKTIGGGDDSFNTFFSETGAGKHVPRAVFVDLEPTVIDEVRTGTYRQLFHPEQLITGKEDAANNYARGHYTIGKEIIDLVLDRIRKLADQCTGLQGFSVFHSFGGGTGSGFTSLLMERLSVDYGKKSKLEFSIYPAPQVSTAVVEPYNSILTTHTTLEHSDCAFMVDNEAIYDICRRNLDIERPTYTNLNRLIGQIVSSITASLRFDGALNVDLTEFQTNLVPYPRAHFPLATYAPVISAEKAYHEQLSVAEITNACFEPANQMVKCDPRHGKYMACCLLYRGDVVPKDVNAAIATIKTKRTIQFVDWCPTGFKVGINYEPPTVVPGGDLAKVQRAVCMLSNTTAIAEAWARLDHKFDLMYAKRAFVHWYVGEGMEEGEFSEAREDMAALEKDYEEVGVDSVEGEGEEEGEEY
T1 sequence (P02554 whole entry): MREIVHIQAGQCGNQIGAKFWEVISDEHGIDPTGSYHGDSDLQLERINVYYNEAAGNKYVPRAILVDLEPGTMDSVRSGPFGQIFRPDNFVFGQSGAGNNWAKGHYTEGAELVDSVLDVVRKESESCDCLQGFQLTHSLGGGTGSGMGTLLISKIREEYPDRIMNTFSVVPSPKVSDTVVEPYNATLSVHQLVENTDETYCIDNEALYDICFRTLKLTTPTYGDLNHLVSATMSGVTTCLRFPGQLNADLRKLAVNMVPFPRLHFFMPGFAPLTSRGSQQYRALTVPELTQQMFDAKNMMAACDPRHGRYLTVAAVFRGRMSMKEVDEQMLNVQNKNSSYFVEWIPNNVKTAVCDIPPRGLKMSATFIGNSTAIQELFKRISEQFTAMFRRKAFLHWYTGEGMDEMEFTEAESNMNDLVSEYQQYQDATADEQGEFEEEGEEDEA

SMILES	BrDU, % of positive cells ([2]; 1×IC50, 24 h) [%]	BrDU, % of positive cells ([2]; 5×IC50, 24 h) [%]	inhibitory activity against tubulin polymerisation (in words) [8]	pH3Ser10, % of positive cells ([10]; 1×IC50, 24 h) [%]	pH3Ser10, % of positive cells ([10]; 5×IC50, 24 h) [%]	<G1 (sub-G1, fragmented DNA), % of positive cells ([15]; 1×IC50, 24 h) [%]	>G2/M (polyploidy), % of positive cells ([15]; 1×IC50, 24 h) [%]	G0/G1, % of positive cells ([15]; 1×IC50, 24 h) [%]	G2/M, % of positive cells ([15]; 1×IC50, 24 h) [%]	S, % of positive cells ([15]; 1×IC50, 24 h) [%]	<G1 (sub-G1, fragmented DNA), % of positive cells ([15]; 5×IC50, 24 h) [%]	>G2/M (polyploidy), % of positive cells ([15]; 5×IC50, 24 h) [%]	G0/G1, % of positive cells ([15]; 5×IC50, 24 h) [%]	G2/M, % of positive cells ([15]; 5×IC50, 24 h) [%]	S, % of positive cells ([15]; 5×IC50, 24 h) [%]	BrU, % of positive cells ([16]; 1×IC50, 24 h) [%]	BrU, % of positive cells ([16]; 5×IC50, 24 h) [%]	IC50 [1, 17] [µM]	IC50 [3, 17] [µM]	IC50 [4, 18] [µM]	also measured
C[C@]12CC[C@@H]3c4ccc(O)cc4CC[C@H]3[C@@H]1CC[C@@]2(O)c1cn(Cc2cc(O)cc(Cn3cc([C@]4(O)CC[C@H]5[C@@H]6CCc7cc(O)ccc7[C@H]6CC[C@@]54C)nn3)c2)nn1 [ED2, (17β,17′β)-17,17′-[(5-Hydroxybenzene-1,3-diyl)bis(methanediyl-1H-1,2,3-triazole-1,4-diyl)]bisestra-1,3,5(10)-triene-3,17-diol]	15.09	21.14	weak in vitro inhibition	52.73	47.87	28.21	8.33	2.32	64.90	32.78	19.20	8.13	0.47	58.40	41.13	41.11	41.82	–	–	–	IC50 ([1]; 72 h): > 50 µM; IC50 ([3]; 72 h): > 50 µM; IC50 ([4]; HCT-116, 72 h): 4.26 ± 0.94 µM; IC50 at 72 h [5]: > 50 µM; IC50 ([6]; HCT-116, 72 h): 3.57 ± 0.66 µM; IC50 ([7]; K562, 72 h): 1.48 ± 0.19 µM; IC50 ([9]; 72 h): 1.7 ± 0.19 µM; IC50 ([11]; A549, 72 h): 6.69 ± 0.79 µM; IC50 ([12]; 72 h): > 50 µM; IC50 at 72 h [13]: < 0.0122 µM; IC50 at 72 h [14]: > 50 µM
COc1cc2c(cc1O)CC[C@@H]1[C@@H]2CC[C@]2(C)[C@@H](O)CC[C@@H]12 [ME, 2-methoxyestradiol, reference compound]	9.31	9.49	–	17.74	67.40	23.97	6.2	31.50	28.85	39.65	65.32	10.4	1.19	84.03	14.77	23.60	46.10	1.32 ± 0.2	2.13 ± 0.3	1.99 ± 0.41	IC50 at 72 h [5, 19]: > 50 µM; IC50 [6, 18]: 1.58 ± 0.25 µM; IC50 [7, 20]: 1.43 ± 0.39 µM; IC50 [9, 17]: 1.61 ± 0.097 µM; IC50 [11, 21]: 2.26 ± 0.15 µM; IC50 [12, 17]: 1.61 ± 0.2 µM; IC50 at 72 h ([13]; HUVEC cells (umbilical vein endothelial cells), MTS assay, 72-h incubation, mean ± SD of 3 independent experiments, read-out: IC50 cytotoxic activity HUVEC): 1.07 ± 0.18 µM; IC50 at 72 h [14, 22]: > 50 µM
C#C[C@]1(O)CC[C@H]2[C@@H]3CCc4cc(O)ccc4[C@H]3CC[C@@]21C [EE, 17α-ethinylestradiol, reference compound]	–	–	–	–	–	–	–	–	–	–	–	–	–	–	–	–	–	15.6 ± 6.25	22.4 ± 5.65	33.6 ± 11.9	IC50 at 72 h [5, 19]: > 50 µM; IC50 [6, 18]: 30 ± 6.89 µM; IC50 [7, 20]: 8.72 ± 2.17 µM; IC50 [11, 21]: 31.5 ± 4.16 µM; IC50 [12, 17]: 23 ± 4.7 µM; IC50 at 72 h [14, 22]: > 50 µM
Cc1cc(C)c(Cn2cc([C@]3(O)CC[C@H]4[C@@H]5CCc6cc(O)ccc6[C@H]5CC[C@@]43C)nn2)c(C)c1Cn1cc([C@]2(O)CC[C@H]3[C@@H]4CCc5cc(O)ccc5[C@H]4CC[C@@]32C)nn1 [ED10, 17,17′-[(2,4,6-Trimethyl-1,3-phenylene)bis(methylene-1H-1,2,3-triazole-1,4-diyl)]di[estra-1,3,5(10)-triene-3,17β-diol]]	–	–	inactive	–	–	–	–	–	–	–	–	–	–	–	–	–	–	–	–	–	–
C[C@]12CC[C@@H]3c4ccc(O)cc4CC[C@H]3[C@@H]1CC[C@@]2(O)c1cn(Cc2c(Cl)c(Cl)c(Cl)c(Cn3cc([C@]4(O)CC[C@H]5[C@@H]6CCc7cc(O)ccc7[C@H]6CC[C@@]54C)nn3)c2Cl)nn1 [ED11, 17,17′-[(2,4,5,6-Tetrachloro-1,3-phenylene)bis(methylene-1H-1,2,3-triazole-1,4-diyl)]di[estra-1,3,5(10)-triene-3,17β-diol]]	–	–	inactive	–	–	–	–	–	–	–	–	–	–	–	–	–	–	–	–	–	–

— article PMC467089, “Click estradiol dimers with novel aromatic bridging units: synthesis and anticancer evaluation” (Journal of Enzyme Inhibition and Medicinal Chemistry, 2024)
